# Measurements from patent US20110129932A1, “Lipoprotein Assay” (L3 TECHNOLOGY LIMITED, priority 2006, published 2011).
# Assays:
# [1] = Excitation and emission maxima of the dyes; type: physicochemical
# [2] = molecular target: T1, Human Serum Albumin (HSA) (Homo sapiens, UniProt P02768); experiment: Nile Red fluorescence bound to HSA with and without octanoate (Example 5); type: binding
# Experimental: (§1) The dye K-37 was added at a concentration of 0.5 mM to LDL at a total lipid concentration of 5 mM, in the presence and absence of 50 mg/ml HSA. Measurements were made with and without the addition of 0.1 M sodium octanoate, which acted as a ligand binding inhibitor.
# Following the findings described in Example 4, concerning the addition of octanoate to block the hydrophobic binding sites of HSA, the inventors then observed that Nile Red also binds to HSA and fluoresces. This additional fluorescence of Nile Red when bound to HSA also causes a substantial background signal, which distorts and thereby causes significant errors in the measurement of HDL. They therefore decided to block the hydrophobic binding sites in HSA with the same ligand binding inhibitor as for K-37 blocking, i.e. sodium octanoate. The experiments conducted with Nile Red and HSA, were based on those discussed in Example 4, and all using 0.5 mM Nile Red.
# [3] = molecular target: T1, Human Serum Albumin (HSA); experiment: K-37 fluorescence bound to HSA with and without octanoate (Example 4); type: binding
# Experimental: as §1
# [4] = molecular target: drug binding domain of HSA (Homo sapiens, UniProt P02768); experiment: Blocking the drug binding domain of HSA in the HDL/Nile red assay
# drug binding domain of HSA, sequence (P02768 25-609): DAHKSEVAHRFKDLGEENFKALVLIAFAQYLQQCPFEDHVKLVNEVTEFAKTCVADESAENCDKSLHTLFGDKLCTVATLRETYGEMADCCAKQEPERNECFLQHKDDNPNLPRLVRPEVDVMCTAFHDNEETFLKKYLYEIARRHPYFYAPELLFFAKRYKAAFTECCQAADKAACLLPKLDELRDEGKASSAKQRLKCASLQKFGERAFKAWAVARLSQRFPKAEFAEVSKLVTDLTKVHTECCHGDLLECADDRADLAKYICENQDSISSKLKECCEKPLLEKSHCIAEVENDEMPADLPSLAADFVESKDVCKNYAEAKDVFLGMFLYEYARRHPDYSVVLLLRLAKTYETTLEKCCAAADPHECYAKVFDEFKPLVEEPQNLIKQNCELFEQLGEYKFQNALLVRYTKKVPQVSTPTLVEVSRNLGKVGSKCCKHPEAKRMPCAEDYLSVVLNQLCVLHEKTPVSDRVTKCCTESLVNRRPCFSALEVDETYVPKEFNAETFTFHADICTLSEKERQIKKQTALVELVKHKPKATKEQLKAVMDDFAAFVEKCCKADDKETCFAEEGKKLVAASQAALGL
# Description: This led the inventors to realise that the HDL/Nile red assay may be improved further by using an additional blocker. They tried agents that block the drug binding domain of HSA. […] The benzoic acid has the added bonus of quenching the Nile Red residual fluorescence in solution by about 20%.
# T1 sequence (P02768 25-609): as above
smiles,measurement,setting,value
c1cc2ccc3cccc4ccc(c1)c2c34 [pyrene],excitation maximum,[1],320 nm
CCN(CC)c1ccc2nc3c4ccccc4c(=O)cc-3oc2c1 [Nile Red],Fluorescence Intensity,[2]; 0.5 mM Nile Red plus 50 mg/ml HSA,58.905 units
same,Fluorescence Intensity,[2]; 0.5 mM Nile Red plus 50 mg/ml HSA + 50 mM octanoate,9.118 units
"CN(C)c1ccc(/C=C/C(=O)c2ccc(S(=O)(=O)C(F)F)cc2)cc1 [K-37, 4-dimethylamino-4′-difluoromethyl-sulphonyl-benzylidene-acetophenone]",Fluorescence Intensity,[3]; 0.5 mM K-37 plus 50 mg/ml HSA,79300 units
same,Fluorescence Intensity,[3]; 0.5 mM K-37 plus 50 mg/ml HSA + 0.1 M sodium octanoate,3600 units
O=C(O)c1ccccc1 [benzoic acid],quenching of the Nile Red residual fluorescence in solution,[4],about 20%
same,displacement of Nile Red from HSA,"[4]; at about 5 mM, without affecting the lipoprotein fluorescence",worked to displace the Nile Red from HSA
